# Tested on: genotype A, "Long" strain RSV
# Test: RSV-A assay (CPE protection in Hep-2 cells, ATPlite readout)
# Assay type: cell-based, Human respiratory syncytial virus (HRSV)
# Conditions: human respiratory syncytial virus, genotype A “Long” strain RSV, MOI 0.1, CPE protection, read-out: Human RSV-A (“Long”)
# Source text: Hep-2 cells, (originally derived from tumors grown in irradiated-cortisonised weanling rats that had been injected with epidermoid carcinoma tissue from the larynx of a person, but later found to be indistinguishable from HeLa cells by PCR DNA analysis), were used for the culturing of genotype A, “Long” strain RSV. Flasks were inoculated with RSV and viral stocks were collected once cytopathic effect (CPE) was greater than 90%. Viral stocks in 25% sucrose media were snap frozen using liquid nitrogen to increase viral stability. Viral stock titers were quantified by tissue culture infectious dose 50% (TCID50) using 8,000 cells per well and 3-fold viral dilutions across a 96-well plate, cultured for 4 days. Viral stock titers were also quantified by a plaque forming unit assay, as described elsewhere.
# Following extensive parameter testing, the final assay is run as follows: Hep-2 cells are seeded into the inner 60 wells of a 96-well plate at 8,000 cells per well in a volume of 50 μL using Growth Media (DMEM without phenol red, 1% L-Glut, 1% Penn/Strep, 1% nonessential amino acids, 10% heat-inactivated FBS). 2-fold serial dilutions of control and test compounds are added to the wells in duplicate in a total volume of 25 μL. Viral stock is then added to the wells at a multiplicity of infection (MOI) of 0.1 in a volume of 25 μL, bringing the total volume of each well to 100 μL. The MOI is calculated using the PFU/mL, or TCID50 if unavailable. Each 96-well plate has a control column of 6 wells with cells and virus but no compound (negative control, max CPE), a column with cells but no compound or virus (positive control, minimum CPE), and a column with no cells or virus or compound (background plate/reagent control). The control wells with cells but no virus are given an additional 25 μL of growth media containing an equal quantity of sucrose as those wells receiving the viral stock in order to keep consistent in media and volume conditions. The outer wells of the plate are filled with 125 μL of moat media (DMEM, 1% Penn/Strep) to act as a thermal and evaporative moat around the test wells. Following a 5-day incubation period, the plates are read using ATPlite (50 uL added per well), which quantifies the amount of ATP (a measure of cell health) present in each well. Assay plates are read using the Envision luminometer. […] EC50 ranges are as follows: A<0.2 μM; B>0.2 μM.
row,EC50 [µM],SMILES
1,> 0.2,COc1cc(C(=O)NC[C@](O)(c2cc3c(c(-c4ccc(F)cc4)n2)OC[C@]3(C)C(N)=O)C(F)(F)F)cc2cc(C)c(C(=O)O)nc12 [Example 5]
2,< 0.2,Cc1nc2c(F)cc(C(=O)NC[C@](O)(c3cc4c(c(-c5ccc(F)cc5)n3)OC[C@]4(C)C(N)=O)C(F)(F)F)cc2s1 [Example 15]
3,< 0.2,C[C@]1(C(N)=O)COc2c1cc([C@@](O)(CNC(=O)c1ccc3nc(C4CC4)sc3c1)C(F)(F)F)nc2-c1ccc(F)c(Cl)c1 [Example 18]
4,< 0.2,C[C@]1(C(N)=O)COc2c1cc([C@@](O)(CNC(=O)c1cnc3nc(C4CC4)sc3c1)C(F)(F)F)nc2-c1ccc(F)cc1 [Example 21]
5,> 0.2,Cn1nc(F)c2cc(C(=O)NC[C@](O)(c3cc4c(c(-c5ccc(F)cc5)n3)OC[C@]4(C)C(N)=O)C(F)(F)F)ccc21 [Example 31]
6,> 0.2,C[C@]1(C(N)=O)COc2c1cc([C@@](O)(CNC(=O)c1ccn3cc(C4CC4)nc3c1)C(F)(F)F)nc2-c1ccc(F)cc1 [Example 33]
7,< 0.2,CC(C)(O)CNC(=O)[C@@]1(C)COc2c1cc([C@@](O)(CNC(=O)c1ccc3c(c1)CN(C1CC1)C3=O)C(F)(F)F)nc2-c1ccc(F)cc1 [Example 35]
8,< 0.2,CCN1Cc2cc(C(=O)NC[C@](O)(c3cc4c(c(-c5ccc(F)cc5)n3)OC[C@]4(C)C(N)=O)C(F)(F)F)ccc2C1=O [Example 36]
9,> 0.2,Cc1ccc2cc(C(=O)NC[C@](O)(c3cc4c(c(-c5ccc(F)cc5)n3)OC[C@]4(C)C(N)=O)C(F)(F)F)cc(N3CCCC3=O)c2n1 [Example 38]
10,> 0.2,Cc1ccc2cc(C(=O)NC[C@](O)(c3cc4c(c(-c5ccc(F)c(Cl)c5)n3)OC[C@]4(C)C(N)=O)C(F)(F)F)cc(N3CCCC3=O)c2n1 [Example 39]
11,< 0.2,COc1cc(C(=O)NC[C@](O)(c2cc3c(c(-c4ccc(F)c(Cl)c4)n2)OC[C@]3(C)C(N)=O)C(F)(F)F)cc2cn(C(F)F)nc12 [Example 46]
12,> 0.2,C[C@]1(C(N)=O)COc2c1cc([C@@](O)(CNC(=O)c1ccc3nc(N)cn3c1)C(F)(F)F)nc2-c1ccc(F)cc1 [Example 56]
13,< 0.2,COc1cc(C(=O)NC[C@](O)(c2cc3c(c(-c4ccc(F)cc4)n2)OC[C@]3(C)C(N)=O)C(F)(F)F)cn2cc(C(N)=O)nc12 [Example 61]
14,> 0.2,CC(C)(O)c1cn2cc(C(=O)NC[C@](O)(c3cc4c(c(-c5ccc(F)cc5)n3)OC[C@]4(C)C(N)=O)C(F)(F)F)cc(F)c2n1 [Example 66]
15,< 0.2,C[C@]1(C(N)=O)COc2c1cc([C@@](O)(CNC(=O)c1ccn3nc(C4CC4)cc3c1)C(F)(F)F)nc2-c1ccc(F)c(Cl)c1 [Example 67]
16,< 0.2,C[C@]1(C(N)=O)COc2c1cc([C@@](O)(CNC(=O)c1ccc3ncc(C(F)(F)F)cc3c1)C(F)(F)F)nc2-c1ccc(F)cc1 [Example 69]
17,< 0.2,COc1cc(C(=O)NC[C@](O)(c2cc3c(c(-c4ccc(F)cc4)n2)OC[C@]3(C)C(N)=O)C(F)(F)F)cc2cc3c(nc12)CCC3 [Example 71]
18,> 0.2,COc1cc(C(=O)NC[C@](O)(c2cc3c(c(-c4ccc(F)cc4)n2)OC[C@]3(C)C(N)=O)C(F)(F)F)cc2cc(C(=O)O)c(C)nc12 [Example 76]
19,> 0.2,C[C@]1(C(N)=O)COc2c1cc([C@@](O)(CNC(=O)c1cc(F)c3nc(C(N)=O)cn3c1)C(F)(F)F)nc2-c1ccc(F)cc1 [Example 79]
20,< 0.2,C[C@]1(C(N)=O)COc2c1cc([C@@](O)(CNC(=O)c1ccn3nc(N)cc3c1)C(F)(F)F)nc2-c1ccc(F)cc1 [Example 87]
21,< 0.2,C[C@]1(C(N)=O)COc2c1cc([C@@](O)(CNC(=O)c1ccn3nc(C4CC4)cc3c1)C(F)(F)F)nc2-c1ccc(F)cc1 [Example 88]
22,< 0.2,COc1cc(C(=O)NC[C@](O)(c2cc3c(c(-c4ccc(F)cc4)n2)OC[C@]3(C)C(N)=O)C(F)(F)F)cc2nc(N)oc12 [Example 89]
23,< 0.2,C[C@]1(C(N)=O)COc2c1cc([C@@](O)(CNC(=O)c1cc(F)c3oc(N)nc3c1)C(F)(F)F)nc2-c1ccc(F)cc1 [Example 90]
24,< 0.2,C[C@]1(C(N)=O)COc2c1cc([C@@](O)(CNC(=O)c1cc(F)c3[nH]c(C4CC4)nc3c1)C(F)(F)F)nc2-c1ccc(F)cc1 [Example 93]
25,< 0.2,C[C@]1(C(N)=O)COc2c1cc([C@@](O)(CNC(=O)c1cc(Cl)c3nnc(C(F)(F)F)cc3c1)C(F)(F)F)nc2-c1ccc(F)cc1 [Example 98]

row,EC50 [µM],SMILES
1,< 0.2,COc1cc(C(=O)NC[C@](O)(c2cc3c(c(-c4ccc(F)cc4)n2)OC[C@]3(C)C(N)=O)C(F)(F)F)cc2cn(CC(F)(F)F)nc12 [Example 99]
2,< 0.2,Cc1c(C(=O)NC[C@](O)(c2cc3c(c(-c4ccc(F)cc4)n2)OC[C@]3(C)C(N)=O)C(F)(F)F)ccc2[nH]ncc12 [Example 101]
3,< 0.2,C[C@]1(C(N)=O)COc2c1cc([C@@](O)(CNC(=O)c1cc(F)c3[nH]ncc3c1)C(F)(F)F)nc2-c1ccc(F)cc1 [Example 104]
4,> 0.2,C[C@]1(C(N)=O)COc2c1cc([C@@](O)(CNC(=O)c1cc3cn[nH]c3cc1Cl)C(F)(F)F)nc2-c1ccc(F)cc1 [Example 106]
5,> 0.2,C[C@]1(C(N)=O)COc2c1cc([C@@](O)(CNC(=O)c1ccc3[nH]nnc3c1)C(F)(F)F)nc2-c1ccc(F)cc1 [Example 107]
6,> 0.2,C[C@]1(C(N)=O)COc2c1cc([C@@](O)(CNC(=O)c1ccc3nncn3c1)C(F)(F)F)nc2-c1ccc(F)cc1 [Example 109]
7,> 0.2,C[C@]1(C(N)=O)COc2c1cc([C@@](O)(CNC(=O)c1ccc3nnnn3c1)C(F)(F)F)nc2-c1ccc(F)cc1 [Example 110]
8,> 0.2,C[C@]1(C(N)=O)COc2c1cc([C@@](O)(CNC(=O)c1cc(O)c3[nH]ncc3c1)C(F)(F)F)nc2-c1ccc(F)cc1 [Example 111]
9,< 0.2,Cc1cnc2c(Nc3ccc(C(C)C)nn3)cc(C(=O)NC[C@](O)(c3cc4c(c(-c5ccc(F)cc5)n3)OC[C@]4(C)C(N)=O)C(F)(F)F)cc2c1 [Example 115]
10,< 0.2,Cc1cnc2c(Nc3ccc(C(F)(F)F)nn3)cc(C(=O)NC[C@](O)(c3cc4c(c(-c5ccc(F)cc5)n3)OC[C@]4(C)C(N)=O)C(F)(F)F)cc2c1 [Example 116]
11,< 0.2,CCc1ccc(Nc2cc(C(=O)NC[C@](O)(c3cc4c(c(-c5ccc(F)cc5)n3)OC[C@]4(C)C(N)=O)C(F)(F)F)cc3cc(C)cnc23)nn1 [Example 117]
12,< 0.2,Cc1cnc2c(Nc3ccc(C(C)(C)C)nn3)cc(C(=O)NC[C@](O)(c3cc4c(c(-c5ccc(F)cc5)n3)OC[C@]4(C)C(N)=O)C(F)(F)F)cc2c1 [Example 118]
13,< 0.2,Cc1cnc2c(Nc3ccc(F)nn3)cc(C(=O)NC[C@](O)(c3cc4c(c(-c5ccc(F)cc5)n3)OC[C@]4(C)C(N)=O)C(F)(F)F)cc2c1 [Example 119]
14,< 0.2,Cc1cc(C(=O)NC[C@](O)(c2cc3c(c(-c4ccc(F)cc4)n2)OC[C@]3(C)C(N)=O)C(F)(F)F)cc2cn[nH]c12 [Example 122]
15,< 0.2,CC(C)c1cc(C(=O)NC[C@](O)(c2cc3c(c(-c4ccc(F)cc4)n2)OC[C@]3(C)C(N)=O)C(F)(F)F)cc2cn[nH]c12 [Example 123]
16,> 0.2,CC(C)c1cc2[nH]ncc2cc1C(=O)NC[C@](O)(c1cc2c(c(-c3ccc(F)cc3)n1)OC[C@]2(C)C(N)=O)C(F)(F)F [Example 125]
17,> 0.2,C[C@]1(C(N)=O)COc2c1cc([C@@](O)(CNC(=O)c1cc3cn[nH]c3cc1C1CC1)C(F)(F)F)nc2-c1ccc(F)cc1 [Example 126]
18,> 0.2,Cc1cc2[nH]ncc2cc1C(=O)NC[C@](O)(c1cc2c(c(-c3ccc(F)cc3)n1)OC[C@]2(C)C(N)=O)C(F)(F)F [Example 127]
19,< 0.2,C[C@]1(C(N)=O)COc2c1cc([C@@](O)(CNC(=O)c1ccc3nc(C(N)=O)sc3c1)C(F)(F)F)nc2-c1ccc(F)cc1 [Example 130]
20,< 0.2,COc1cc(C(=O)NC[C@](O)(c2cc3c(c(-c4ccc(F)cc4)n2)OC[C@]3(C)C(N)=O)C(F)(F)F)ccc1OC[C@@H](O)C(F)(F)F [Example 131]
21,< 0.2,COc1cc(C(=O)NC[C@](O)(c2cc3c(c(-c4ccc(F)cc4)n2)OC[C@]3(C)C(N)=O)C(F)(F)F)ccc1OC[C@H](C)O [Example 133]
22,> 0.2,C[C@]1(C(N)=O)COc2c1cc([C@@](O)(CNC(=O)c1ccc3nc(NS(C)(=O)=O)sc3c1)C(F)(F)F)nc2-c1ccc(F)cc1 [Example 140]
23,> 0.2,COc1cc(C(=O)NC[C@](O)(c2cc3c(c(-c4ccc(F)cc4)n2)OC[C@]3(C)C(N)=O)C(F)(F)F)cc2c1cnn2C1CC1 [Example 144]
24,> 0.2,C[C@]1(C(N)=O)COc2c1cc([C@@](O)(CNC(=O)c1cc(Cl)c3cnn(C4CC4)c3c1)C(F)(F)F)nc2-c1ccc(F)cc1 [Example 145]

# Source: patent publication US12612412B2, “Antiviral heterocyclic compounds” (Enanta Pharmaceuticals, Inc., priority 2021, dated 2026)
